One assay deals with T1, AR-V7 (Homo sapiens, UniProt P10275).
T1 sequence (P10275 1-644 isoform P10275-3): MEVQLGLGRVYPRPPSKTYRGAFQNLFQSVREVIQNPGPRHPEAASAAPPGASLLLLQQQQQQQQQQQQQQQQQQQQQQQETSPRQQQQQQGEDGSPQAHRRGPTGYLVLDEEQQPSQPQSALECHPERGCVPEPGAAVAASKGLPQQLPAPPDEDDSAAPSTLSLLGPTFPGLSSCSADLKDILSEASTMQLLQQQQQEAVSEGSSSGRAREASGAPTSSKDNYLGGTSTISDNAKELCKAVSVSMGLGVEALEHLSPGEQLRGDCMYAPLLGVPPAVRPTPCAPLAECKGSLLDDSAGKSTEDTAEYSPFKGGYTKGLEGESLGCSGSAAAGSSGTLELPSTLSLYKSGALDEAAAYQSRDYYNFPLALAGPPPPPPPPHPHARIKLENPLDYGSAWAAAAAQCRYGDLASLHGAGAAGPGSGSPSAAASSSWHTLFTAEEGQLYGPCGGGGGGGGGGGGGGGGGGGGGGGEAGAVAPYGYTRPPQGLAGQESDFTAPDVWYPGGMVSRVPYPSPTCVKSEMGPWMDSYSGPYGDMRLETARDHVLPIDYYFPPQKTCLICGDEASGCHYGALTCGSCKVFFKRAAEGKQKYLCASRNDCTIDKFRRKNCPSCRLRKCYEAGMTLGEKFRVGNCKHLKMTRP
The assay is described as follows: Immunoblot of AR-V7 polyubiquitination in 22Rv1 pretreated with MG132. The conditions noted are these: 22Rv1 pretreated with MG132 two hours; compound 1 μM. Also noted: endogenous in cells; host or cells: 22Rv1. Type of assay: cell-based. As for the experimental part:
Immunoblot Analysis. CaP cells are collected and lysed with the lysis buffer (20 mM Tris-HCl (pH 7.5), 150 mM NaCl, 1 mM Na2EDTA, 1 mM EGTA, 1% Triton, 2.5 mM sodium pyrophosphate, 1 mM beta-glycerophosphate, 1 mM Na3VO4, and 1 μg/ml leupeptin) containing 1 mM phenylmethylsulfonyl fluoride (PMSF). Cell lysates are then centrifuged and protein in the supernatant is quantified. After separating 25-50 μg of protein using SDS-PAGE, samples are incubated with AR-V7, GR, PR, ERα, AR-FL, ubiquitin, or β-actin antibodies. For AR-V7, AR-FL, PR, GR, and ERα immunoblots, primary antibody is diluted 1:1000 in 5% skim milk. For the β-actin immunoblot, 1:10000 diluted primary antibody is used. All membranes are incubated overnight at 4° C. Following the incubation with appropriate secondary antibody, immunoblots are analyzed using SuperSignal West Femto Maximum Sensitivity Substrate (ThermoFisher).
To determine the ubiquitination status of AR proteins, 22Rv1 is pretreated with MG132 for two hours prior to adding Compound of Example 16 (at 1 μM).
On the technique in general: In western blotting, separated proteins are transferred to a membrane and probed.

In assay [1] the target is T2, estrogen receptor alpha (ER) (Homo sapiens, UniProt P03372).
T2 construct: progesterone receptor (PR) a and b, and estrogen receptor alpha (ER); endogenous in cells; host or cells: 22Rv1
T2 sequence (P03372 1-595): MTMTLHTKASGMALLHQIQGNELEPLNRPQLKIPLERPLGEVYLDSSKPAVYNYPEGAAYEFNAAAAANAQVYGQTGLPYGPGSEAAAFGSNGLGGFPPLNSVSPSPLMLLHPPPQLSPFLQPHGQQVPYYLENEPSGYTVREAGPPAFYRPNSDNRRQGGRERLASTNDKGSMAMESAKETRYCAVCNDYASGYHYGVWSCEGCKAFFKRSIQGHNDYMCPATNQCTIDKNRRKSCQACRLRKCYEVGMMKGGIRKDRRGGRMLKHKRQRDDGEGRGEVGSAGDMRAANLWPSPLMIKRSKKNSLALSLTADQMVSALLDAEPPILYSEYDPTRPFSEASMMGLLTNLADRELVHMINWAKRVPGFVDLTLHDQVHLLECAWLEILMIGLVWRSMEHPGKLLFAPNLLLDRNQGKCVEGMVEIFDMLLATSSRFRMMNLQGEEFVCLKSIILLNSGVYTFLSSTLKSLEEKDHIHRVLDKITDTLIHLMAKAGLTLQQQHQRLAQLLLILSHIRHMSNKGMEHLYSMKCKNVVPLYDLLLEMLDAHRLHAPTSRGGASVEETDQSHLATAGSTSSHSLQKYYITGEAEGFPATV
Briefly: Immunoblot of ER alpha in 22Rv1 cells. The conditions noted are these: 22Rv1, 24 hours, up to 10 μM. The assay is classed as cell-based. The method, then: Cell Culture. Human CaP cell lines, LNCaP, 22Rv1, VCaP, PC3, and DU145 are obtained from the American Type Culture Collection (ATCC) and maintained in the standard culture media: RPMI-1640 supplemented with 10% fetal bovine serum (FBS). LNCaP, 22Rv1, and VCaP are androgen-responsive cell lines, while PC3 and DU145 are not. To establish SAT resistant CaP cell lines, LNCaP, 22Rv1, and VCaP are treated continuously with 10-50 μM abiraterone, apalutamide, darolutamide, or enzalutamide. After 3-6 months, stable cell lines are established and designated as LNCaP-Abi^R, LNCaP-Apa^R, LNCaP-Daro^R, LNCaP-Enz^R, VCaP-Abi^R, VCaP-Apa^R, VCaP-Daro^R, VCaP-Enz^R, 22Rv1-Abi^R, 22Rv1-Apa^R, 22Rv1-Daro^R and 22Rv1-Enz^R. Unless otherwise specified, the standard culture media for these SAT-resistant cell lines included 10 μM of their respective SAT. For the proteasome inhibitor study, the inhibitors MG132 and Epoxomicin are used. The E3 ligase inhibitors Heclin, Nutlin 3a, Thalidomide, and VH298 are used. […] Mycoplasma contamination is also assessed using a PCR based detection system.
Immunoblot Analysis. […] Cell lysates are then centrifuged and protein in the supernatant is quantified. […] Following the incubation with appropriate secondary antibody, immunoblots are analyzed using SuperSignal West Femto Maximum Sensitivity Substrate (ThermoFisher).

As to `Cc1ncsc1-c1ccc([C@H](C)NC(=O)[C@@H]2C[C@@H](O)CN2C(=O)[C@@H](NC(=O)CCCCNC(=O)COc2c(-c3csc(N4CCOCC4)n3)ccc(F)c2F)C(C)(C)C)cc1` [Example 16, (2S,4R)-1-((S)-2-(5-(2-(2,3-difluoro-6-(2-morpholinothiazol-4-yl)phenoxy)acetamido)pentanamido)-3,3-dimethylbutanoyl)-4-hydroxy-N-((S)-1-(4-(4-methylthiazol-5-yl)phenyl)ethyl)pyrrolidine-2-carboxamide], the “start of polyubiquitination of AR-V7 after treatment” value on AR-V7 was found to be 6 h. Moreover, the “effect on expression level of estrogen receptor alpha (ER)” value in assay [1] is listed as “no visible effect”.

These data come from patent US20230132823A1, “BI-FUNCTIONAL COMPOUNDS AND METHODS FOR TARGETED UBIQUITINATION OF ANDROGEN RECEPTOR” (MONTELINO THERAPEUTICS, INC., priority 2020, published 2023).
